Measurements taken from patent US8829014B2, “Thiazole and thiophene analogues, and their use in treating autoimmune diseases and cancers” (Board of Supervisors of Louisiana State University and …, priority 2006, dated 2014).

What was measured:
AP-1 = experiment: PMA-induced AP-1 luciferase expression in HEK cells; assay type: cell-based; conditions: luciferase in HEK/AP-1 cells, as described in Example 398; for inhibition at 1 µM: AP1, 1 uM
NF-κB = experiment: TNF-α-induced NF-κB-dependent luciferase expression in HEK cells; assay type: cell-based; conditions: luciferase in HEK/NF-κB cells, as described in Example 398; for inhibition at 1 µM: Homo sapiens, HEK293, 1 uM, read-out: NFkB inhibition @ 1 uM
carageenan-induced edema = experiment: Carrageenan-induced rat paw edema test (anti-inflammatory activity); assay type: in vivo, Sprague-Dawley rats
How it was run: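 Edema was raised by sub-plantar injection of 1% carrageenan into the right hind paw, 1 h after dosing 18 h-fasted male/female Sprague-Dawley rats (150-250 g) with 50 mg/kg p.o. in 0.1% CMC. Swelling was measured by displacement 3 h later and expressed as % protection against saline control.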

[1] = Rattus norvegicus, po, 3 h, rat paw edema, 50 mg/kg, reading 3 hours after carrageenan; [(Control−Test)/Control]×100%; read-out: % Protection P
[2] = rat paw edema, 50 mg/kg, reading 3 hours after carrageenan; [(Control−Test)/Control]×100%; 50 mg/kg
[3] = rat paw edema, 50 mg/kg, reading 3 hours after carrageenan; [(Control−Test)/Control]×100%

## CC(=O)Nc1ccc(-c2cc(C(=O)c3ccncc3)sc2N2CCOCC2)cc1 [Example 75, N-{4-[2-Morpholin-4-yl-5-(pyridine-4-carbonyl)-thiophene-3-yl]-phenyl}-acetamide]
AP-1
  inhibition at 1 µM: 45.5%
NF-κB
  inhibition at 1 µM: 17.4%
carageenan-induced edema; [1]
  inhibition in vivo at 50 mg/kg: 45.7%

## COc1ccc(C(=O)c2cc(-c3ccc(Cl)cc3)c(N3CCOCC3)s2)cc1 [Example 80, [4-(4-Chloro-phenyl)-5-morpholin-4-yl-thiophen-2-yl]-(4-methoxy-phenyl)-methanone]
AP-1
  inhibition at 1 µM: 30.6%
NF-κB
  inhibition at 1 µM: -2.91%
carageenan-induced edema; [1]
  inhibition in vivo at 50 mg/kg: 18.9%

## O=C(c1cc(-c2ccc(Cl)cc2)c(N2CCOCC2)s1)c1ccc(Cl)cc1Cl [Example 82, [4-(4-Chloro-phenyl)-5-morpholin-4-yl-thiophen-2-yl]-(2,4-dichloro-phenyl)-methanone]
AP-1
  inhibition at 1 µM: 34.3%
NF-κB
  inhibition at 1 µM: 0.6%
carageenan-induced edema; [1]
  inhibition in vivo at 50 mg/kg: 22.8%

## CS(=O)(=O)c1ccc(C(=O)c2cc(-c3ccc(Cl)cc3)c(N3CCOCC3)s2)cc1 [Example 84, [4-(4-Chloro-phenyl)-5-morpholin-4-yl-thiophen-2-yl]-(4-methansulfonyl-phenyl)-methanone]
AP-1
  inhibition at 1 µM: 30.9%
NF-κB
  inhibition at 1 µM: -11.7%
carageenan-induced edema; [1]
  inhibition in vivo at 50 mg/kg: 23%

## O=C(c1cccnc1)c1cc(-c2ccc(Cl)cc2)c(N2CCOCC2)s1 [Example 86, [4-(4-Chloro-phenyl)-5-morpholin-4-yl-thiophen-2-yl]-pyridin-3-yl-methanone]
AP-1
  inhibition at 1 µM: 15.2%
NF-κB
  inhibition at 1 µM: 3.6%
carageenan-induced edema; [1]
  inhibition in vivo at 50 mg/kg: 28.1%

## Cc1ccc(C(=O)c2cc(-c3cccnc3)c(N3CCOCC3)s2)cc1 [Example 91, (5-Morpholin-4-yl-4-pyridin-3-yl-thiophene-2-yl)-p-tolyl-methanone]
AP-1
  inhibition at 1 µM: 49%
NF-κB
  inhibition at 1 µM: 1.28%
carageenan-induced edema; [1]
  inhibition in vivo at 50 mg/kg: 25.3%

## CSc1ccc(C(=O)c2cc(-c3cccnc3)c(N3CCOCC3)s2)cc1 [Example 95, (4-Methylsulfanyl-phenyl)-(5-morpholin-4-yl-4-pyridin-3-yl-thiophen-2-yl)-methanone]
AP-1
  AP-1 inhibition @ 1 uM: 64.02
NF-κB
  NFkB inhibition @ 1 uM: 11.24
carageenan-induced edema; [2]
  % Protection P: 42.44%

## CS(=O)(=O)c1ccc(C(=O)c2cc(-c3cccnc3)c(N3CCOCC3)s2)cc1 [Example 96, (4-Methylsulfonyl-phenyl)-(5-morpholin-4-yl-4-pyridin-3-yl-thiophen-2-yl)-methanone]
AP-1
  inhibition at 1 µM: 37.7%
NF-κB
  inhibition at 1 µM: -12.9%
carageenan-induced edema; [1]
  inhibition in vivo at 50 mg/kg: 46.8%

## COc1c(C)cc(-c2cc(-c3ccncc3)c(N3CCOCC3)s2)nc1C [Example 100, 4-[5-(5-Methoxy-4,6-dimethyl-pyridin-2-yl)-3-pyridin-4-yl-thiophen-2-yl]-morpholine]
AP-1
  inhibition at 1 µM: 47.4%
NF-κB
  inhibition at 1 µM: 5.21%
carageenan-induced edema; [1]
  inhibition in vivo at 50 mg/kg: 54.2%

## Cc1ccc(C(=O)c2cc(-c3ccncc3)c(N3CCOCC3)s2)cc1 [Example 103, (5-Morpholin-4-yl-4-pyridin-4-yl-thiophene-2-yl)-p-tolyl-methanone]
AP-1
  inhibition at 1 µM: 4.35%
NF-κB
  inhibition at 1 µM: 10.3%
carageenan-induced edema; [1]
  inhibition in vivo at 50 mg/kg: -30.8%

## CSc1ccc(C(=O)c2cc(-c3cccnc3)c(N3CCOCC3)s2)cc1 [Example 107, (4-Methylsulfanyl-phenyl)-(5-morpholin-4-yl-4-pyridin-3-yl-thiophen-2-yl)-methanone]
AP-1
  AP-1 inhibition @ 1 uM: 19.05
NF-κB
  NFkB inhibition @ 1 uM: 1.69
carageenan-induced edema; [2]
  % Protection P: −42.44%

## CS(=O)(=O)c1ccc(C(=O)c2cc(-c3ccncc3)c(N3CCOCC3)s2)cc1 [Example 108, (4-Methylsulfonyl-phenyl)-(5-morpholin-4-yl-4-pyridin-4-yl-thiophen-2-yl)-methanone]
AP-1
  inhibition at 1 µM: 46.6%
NF-κB
  inhibition at 1 µM: -8.31%
carageenan-induced edema; [1]
  inhibition in vivo at 50 mg/kg: 54.2%

## COc1ccc(C(=O)c2sc(Nc3ccccc3)nc2NC(=O)Nc2ccc(F)cc2)cc1 [Example 117, 1-(4-Fluoro-phenyl)-3-[5-(4-methoxy-benzoyl)-2-phenylamino-thiazol-4-yl]-urea]
AP-1
  inhibition at 1 µM: 51%
NF-κB
  inhibition at 1 µM: 22.1%
carageenan-induced edema; [2]
  % Protection P: 58.62%

## CNc1nc(C)c(C(=O)c2sc(NC)nc2C)s1 [Example 118, Bis-(4-methyl-2-methylamino-thiazole-5-yl)-methanone]
AP-1
  inhibition at 1 µM: 33.4%
NF-κB
  inhibition at 1 µM: 8.84%
carageenan-induced edema; [1]
  inhibition in vivo at 50 mg/kg: 40.9%

## Cc1nc(Nc2ccccc2)sc1C(=O)c1sc(Nc2ccccc2)nc1C [Example 119, Bis-(4-methyl-2-phenylamino-thiazole-5-yl)-methanone]
AP-1
  inhibition at 1 µM: 26%
NF-κB
  inhibition at 1 µM: 8.39%
carageenan-induced edema; [1]
  inhibition in vivo at 50 mg/kg: 45.5%

## Cc1nc(Nc2ccc(Cl)cc2)sc1C(=O)c1sc(Nc2ccc(Cl)cc2)nc1C [Example 120, Bis-[2-(4-Chloro-phenylamino)-4-methyl-thiazole-5-yl]-methanone]
AP-1
  inhibition at 1 µM: 76.2%
NF-κB
  inhibition at 1 µM: 20.3%
carageenan-induced edema; [1]
  inhibition in vivo at 50 mg/kg: 64.6%

## CCOC(=O)Nc1nc(C)c(C(=O)c2sc(NC(=O)OCC)nc2C)s1 [Example 124, Diethyl[carbonyl-bis(4-methyl-1,3-thiazole-5,2-diyl)]biscarbamate]
AP-1
  inhibition at 1 µM: 71.6%
NF-κB
  inhibition at 1 µM: 20.1%
carageenan-induced edema; [1]
  inhibition in vivo at 50 mg/kg: 65.7%

## CNc1nc(-c2ccccc2)c(C(=O)c2sc(NC)nc2-c2ccccc2)s1 [Example 125, Bis-(2-methylamino-4-Phenyl-thiazole-5-yl)-methanone]
AP-1
  inhibition at 1 µM: 23.8%
NF-κB
  inhibition at 1 µM: 27.1%
carageenan-induced edema; [1]
  inhibition in vivo at 50 mg/kg: 23.2%

## COC(=O)Nc1nc(Cc2ccccc2)c(C(=O)c2sc(NC(=O)OC)nc2Cc2ccccc2)s1 [Example 137, Dimethyl[carbonyl-bis(4-benzyl-1,3-thiazole-5,2-diyl)]biscarbamate]
AP-1
  inhibition at 1 µM: 51.3%
NF-κB
  inhibition at 1 µM: 7.69%
carageenan-induced edema; [1]
  inhibition in vivo at 50 mg/kg: 47.2%

## CCOC(=O)Nc1nc(Cc2ccccc2)c(C(=O)c2sc(NC(=O)OCC)nc2Cc2ccccc2)s1 [Example 138, Diethyl[carbonyl-bis(4-benzyl-1,3-thiazole-5,2-diyl)]biscarbamate]
AP-1
  inhibition at 1 µM: 83.6%
NF-κB
  inhibition at 1 µM: 55.6%
carageenan-induced edema; [1]
  inhibition in vivo at 50 mg/kg: 88.9%

## O=C(CCl)Nc1ccccc1C(=O)O [Example 139, 2-(2-Chloroacetylamino) benzoic acid]
AP-1
  inhibition at 1 µM: 74.4%
NF-κB
  inhibition at 1 µM: 62.6%
carageenan-induced edema; [1]
  inhibition in vivo at 50 mg/kg: 69.6%

## O=c1c2ccccc2nc(-c2cc(-c3ccccc3)c(N3CCOCC3)s2)n1-c1ccccc1 [Example 272, 2-(5-Morpholin-4-yl-4-phenyl-thiophene-2-yl)-3-phenyl-3H-quinazolin-4-one]
AP-1
  inhibition at 1 µM: 11%
NF-κB
  inhibition at 1 µM: -2%
carageenan-induced edema; [1]
  inhibition in vivo at 50 mg/kg: 30%

## O=c1c2ccccc2nc(-c2cc(-c3ccc(Cl)cc3)c(N3CCOCC3)s2)n1-c1ccccc1 [Example 273, 2-[4-(4-Chloro-phenyl)-5-morpholin-4-yl-thiophen-2-yl]-3-phenyl-3H-quinazolin-4-one]
AP-1
  inhibition at 1 µM: -17%
NF-κB
  inhibition at 1 µM: -35%
carageenan-induced edema; [1]
  inhibition in vivo at 50 mg/kg: 0%

## CS(=O)(=O)c1ccc(-c2cc(-c3nc4ccccc4c(=O)n3-c3ccccc3)sc2N2CCOCC2)cc1 [Example 275, 2-[4-(4-Methanesulfonyl-phenyl)-5-morpholin-4-yl-thiophen-2-yl]-3-phenyl-3H-quinazolin-4-one]
AP-1
  inhibition at 1 µM: 28%
NF-κB
  inhibition at 1 µM: 9%
carageenan-induced edema; [1]
  inhibition in vivo at 50 mg/kg: 25%

## CSc1ccc(-c2cc(-c3nc4ccccc4c(=O)n3-c3ccccc3C)sc2N2CCOCC2)cc1 [Example 282, 2-[4-(4-Methylsulfanylphenyl)-5-morpholin-4-yl-thiophen-2-yl]-3-0-tolyl-3H-quinazolin-4-one]
AP-1
  AP-1 inhibition @ 1 uM: −18
NF-κB
  NFkB inhibition @ 1 uM: 53
carageenan-induced edema; [3]
  % Protection P: 51%

## CC(=O)Nc1ccc(-c2cc(-c3nc4ccccc4c(=O)n3-c3cccc(C)c3)sc2N2CCOCC2)cc1 [Example 286, N-{4-[2-Morpholin-4-yl-5-(4-oxo-3-m-tolyl-3-,4-dihydro-quinazolin-2-yl)-thiophene-3-yl]-phenyl}-acetamide]
AP-1
  AP-1 inhibition @ 1 uM: 13
NF-κB
  NFkB inhibition @ 1 uM: 35
carageenan-induced edema; [3]
  % Protection P: 52%

## Cc1cccc(-n2c(-c3cc(-c4ccncc4)c(N4CCOCC4)s3)nc3ccccc3c2=O)c1 [Example 289, 2-(5-Morpholin-4-yl-4-pyridin-4-yl-thiophen-2-yl)-3-m-tolyl-3H-quinazolin-4-one]
AP-1
  inhibition at 1 µM: 35%
NF-κB
  inhibition at 1 µM: 42%
carageenan-induced edema; [1]
  inhibition in vivo at 50 mg/kg: 30%

## COc1ccccc1-n1c(-c2cc(-c3ccc(S(C)(=O)=O)cc3)c(N3CCOCC3)s2)nc2ccccc2c1=O [Example 297, 2-[4-(4-Methanesulphonyl-phenyl)-5-morpholin-4-yl-thiophen-2-yl]-3-(2-methoxy-phenyl)-3H-quinazolin-4-one]
AP-1
  inhibition at 1 µM: 33%
NF-κB
  inhibition at 1 µM: 55%
carageenan-induced edema; [1]
  inhibition in vivo at 50 mg/kg: 63%

## COc1cccc(-n2c(-c3cc(-c4ccc(S(C)(=O)=O)cc4)c(N4CCOCC4)s3)nc3ccccc3c2=O)c1 [Example 300, 2-[4-(4-Methanesulphonyl-phenyl)-5-morpholin-4-yl-thiophen-2-yl]-3-(3-methoxy-phenyl)-3H-quinazolin-4-one]
AP-1
  inhibition at 1 µM: -4%
NF-κB
  inhibition at 1 µM: 20%
carageenan-induced edema; [1]
  inhibition in vivo at 50 mg/kg: 48%
